# Data reported in patent publication US20250011734A1, “DGAT1/2-INDEPENDENT ENZYME SYNTHESIZING STORAGE LIPIDS (DIESL)” (STICHTING HET NEDERLANDS KANKER INSTITUUT-ANTONI VAN …, priority 2021, published 2025).
# T1: 3xHA-tagged DIESL (human TMEM68, DGAT1/2-Independent Enzyme Synthesizing Storage Lipids) (human, UniProt Q96MH6 1-324, N-glycosylation at its N-terminus (N-X-S/T motif; N5Q mutant served as negative control))
# T1 construct: It is an ER membrane protein and was assayed in cells or cell lysates; also called 3xHA-DIESL; transmembrane protein 68; not shown: the N-terminal position is inferred only from the name 3xH
# T1 sequence: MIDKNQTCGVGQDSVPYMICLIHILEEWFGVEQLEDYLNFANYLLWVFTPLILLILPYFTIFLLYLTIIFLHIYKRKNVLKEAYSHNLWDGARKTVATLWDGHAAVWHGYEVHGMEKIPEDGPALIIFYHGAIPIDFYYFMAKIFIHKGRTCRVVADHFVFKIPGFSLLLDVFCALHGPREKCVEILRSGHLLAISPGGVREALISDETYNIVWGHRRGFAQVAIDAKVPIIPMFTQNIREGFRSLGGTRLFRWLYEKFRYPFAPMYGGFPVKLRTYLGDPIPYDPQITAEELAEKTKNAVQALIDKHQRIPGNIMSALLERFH
# Key:
# RPE1 cells = test: Mitochondrial membrane potential and ATP levels in RPE1 cells lacking DIESL cultured without lipoproteins; assay type: cell-based
# Experimental: For BODIPY 493/503 measurements in fixed HAP1 cells, HAP1 cells, grown in 10 cm plates, were collected by trypsinization and were fixed in Fix Buffer I (BD Biosciences) for 10 minutes at 37° C. Cells were pelleted, washed with FACS buffer (10% FBS in PBS), resuspended in FACS buffer and counted. 10 million cells were stained with 1 μg/ml BODIPY 493/503 and 5 μg/ml DAPI (Invitrogen), diluted in FACS buffer, for one hour at room temperature. Cells were washed once in FACS buffer, then passed through a 35 μm nylon mesh cell strainer into a FACS tube. Fluorescence was analyzed on an LSR Fortessa (BD Biosciences) analytical flow cytometer, using 405 and 488 nm lasers to detect DAPI and BODIPY 493/503, respectively. Data were analyzed using FlowJo (BD Life Sciences). Fluorescence plots represent the fluorescent signal measured in single haploid G1 cells, as determined by DAPI fluorescence intensity. […] Fluorescence (using a 561 nm laser) and data were analyzed as above. Fluorescence plots represent the fluorescent signal measured in single cells. Membrane potential was calculated by subtracting the fluorescence mean of depolarized (CCCP-treated) cells. RPE1 cells were plated in 96-well plates and ATP levels were measured using CellTitre-Glo (Promega) according to the manufacturer's instructions. […]
# [1] = biological target: T1, 3xHA-tagged DIESL (human TMEM68, …); test: summary of the examples (crosslinking and co-immunoprecipitation)
# Experimental: HAP1 ΔDIESL and ATMX1ΔDIESL cells reconstituted with 3xHA-DIESL, or HeLa WT cells expressing 3xHA-DIESL, were washed with PBS and incubated in 1% paraformaldehyde for 20 minutes at room temperature. Cross-linking reactions were quenched by incubation in 0.2 M glycine for 10 minutes. Cells were then lysed in RIPA buffer on ice as described above, sonicated and protein concentrations were determined. Samples were separated by SDS-PAGE and immunoblotted as described above.
# HAP1 ΔDIESL cells reconstituted with 3xHA-DIESL, grown to confluence in a 6-well plate, were lysed in 400 μl IP buffer (25 mM HEPES PH 7.0, 150 mM NaCl, 1% detergent [Tween-20 unless otherwise indicated], and protease/phosphatase inhibitor cocktails) on ice, sonicated and cleared by centrifugation. 250 μl of lysate was incubated with 10 μl of PBS-washed anti-HA magnetic beads (Pierce) overnight while rotating at 4° C. The following day, beads were washed three times in IP buffer before elution in SDS-PAGE sample buffer at 90° C. for 20 minutes. One-quarter of this eluate (along with the corresponding amount of input sample) were separated by SDS-PAGE and subjected to immunoblot analysis as above.
molecule,measurement,setting,value
CCOC(=O)[C@@]1(CCCCCCOc2ccc(Cl)cc2)CO1 [etomoxir],Effect of CPT1A inhibition on the oleic acid rescue,"RPE1 cells; DIESL-deficient RPE1 cells without lipoproteins plus oleic acid, data not shown",sensitive
CCCCCCCC/C=C\CCCCCCCC(=O)O [oleic acid],Rescue of decreased mitochondrial membrane potential and ATP levels,"RPE1 cells; DIESL-deficient RPE1 cells, lipoprotein-deficient medium supplemented with 50 µM oleic acid for 24 hours, FIG. 19F",rescued
"Thioredoxin related transmembrane protein 1 (TMX1), human, endogenous in HAP1 / HeLa cells (enzyme, Endogenous TMX1 of human cell lines (HAP1, HeLa), an ER membrane protein, detected with anti-TMX1 antibodies; also called transmembrane thioredoxin 1; TMX1 polypeptide) RRSNVRVITDENWRELLEGDWMIEFYAPWCPACQNLQPEWESFAEWGEDLEVNIAKVDVTEQPGLSGRFIITALPTIYHCKDGEFRRYQGPRTKKDFINFISDKEWKSIEPVSSWFGPGSVLMSSMSALFQLSMWIRTCHNYFIEDLGLPVWGSYTVFALATLFSGLLLGLCMIFVADCLCPSKRRRPQPYPYPSKKLLSESAQPLKKVEEEQEADEEDVSEEEAESKEGTNKDFPQNAIRQRSLGPSLATDKS",binding result,[1],binds
